Measured values: patent publication EP1400530A1, “Suppression of immune response via inhibition of cathepsin S” (MASSACHUSETTS INSTITUTE OF TECHNOLOGY, priority 1996, dated 1997)

Tested on: Peripheral blood mononuclear cells (PBMC's)
Type: cell-based, human
Conditions: 3-5 days; 20 µM

With `CCOC(=O)[C@H]1O[C@@H]1C(=O)N[C@@H](CC(C)C)C(=O)NCCC(C)C` (relative stereo) [E64D] the “attenuation of 3H-thymidine uptake response to tetanus toxoid” value was “approximately 60%”.
